Measurements as given in patent publication US7045532B2 (Millennium Pharmaceuticals, Inc., priority 1999, dated 2006).
Where two headings read alike, the source gives them in different places.

What was measured:
[1] = target: T1, ACE-2 (Homo sapiens, UniProt Q9BYF1); test: ACE-2 Competitive Substrate Assay (ACS Assay); assay type: biochemical
T1 construct: a stop codon inserted after the serine immediately preceding the transmembrane domain; made in house; host or cells: CHO K1 cells (transient transfection, purified from conditioned medium)

[2] = target: T2, Carboxypeptidase A (Bos taurus, UniProt P00730); test: Carboxypeptidase A activity assay; assay type: biochemical; conditions: Ki class, compounds tested in 5% DMSO
T2 sequence (P00730 111-419): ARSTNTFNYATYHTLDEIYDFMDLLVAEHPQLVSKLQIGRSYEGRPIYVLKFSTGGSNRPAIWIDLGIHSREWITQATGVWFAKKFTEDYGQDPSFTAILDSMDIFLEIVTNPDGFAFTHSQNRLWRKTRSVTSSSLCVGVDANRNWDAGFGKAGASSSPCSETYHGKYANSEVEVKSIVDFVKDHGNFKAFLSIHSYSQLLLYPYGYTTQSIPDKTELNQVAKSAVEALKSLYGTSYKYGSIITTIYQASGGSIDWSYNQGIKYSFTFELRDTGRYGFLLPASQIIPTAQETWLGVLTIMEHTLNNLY
Protocol: Carboxypeptidase A activity was measured using a literature assay (Holmquist and Riordan, “Carboxypeptidase A,” Methods of Enzymatic Analysis (1984) p. 44–60). The assay was adapted to a 96 well format by adjusting to a 300 μL assay volume and using ultra-thin bottom plates (Costar/Corning) read at 328 nm. The assay was stopped using EDTA.
The activity of the test compounds was investigated using the procedure outlined above. The compounds were tested in 5% DMSO. Enzyme activity was measured at 12 compound concentrations. The Ki was calculated by using Ki=Kiapp/(1+[S]/Km).
To determine whether a test compound is capable of modulating carboxypeptidase A's ability to cleave a substrate the method described in Holmquist and Riordan, Carboxypeptidase A, p44–60, Peptidase and Their Inhibitors in Method of Enzymatic Analysis (1984), may be used.
The assay may be adapted to a 96 well format by adjusting to a 300 μl assay volume and using ultrathin bottom plates (Costar/Coming) read at 328 nm with a final assay volume of 300 μl. The assay may be stopped using EDTA.

[3] = target: T3, ACE (Sigma, A2580) (Sus scrofa, UniProt F1RRW5); test: ACE enzymatic activity assay; assay type: biochemical, porcine; conditions: Ki class, compounds tested in 5% DMSO
T3 construct: ACE from porcine kidney; purchased Sigma A2580; host or cells: porcine kidney
T3 sequence (F1RRW5 34-1309): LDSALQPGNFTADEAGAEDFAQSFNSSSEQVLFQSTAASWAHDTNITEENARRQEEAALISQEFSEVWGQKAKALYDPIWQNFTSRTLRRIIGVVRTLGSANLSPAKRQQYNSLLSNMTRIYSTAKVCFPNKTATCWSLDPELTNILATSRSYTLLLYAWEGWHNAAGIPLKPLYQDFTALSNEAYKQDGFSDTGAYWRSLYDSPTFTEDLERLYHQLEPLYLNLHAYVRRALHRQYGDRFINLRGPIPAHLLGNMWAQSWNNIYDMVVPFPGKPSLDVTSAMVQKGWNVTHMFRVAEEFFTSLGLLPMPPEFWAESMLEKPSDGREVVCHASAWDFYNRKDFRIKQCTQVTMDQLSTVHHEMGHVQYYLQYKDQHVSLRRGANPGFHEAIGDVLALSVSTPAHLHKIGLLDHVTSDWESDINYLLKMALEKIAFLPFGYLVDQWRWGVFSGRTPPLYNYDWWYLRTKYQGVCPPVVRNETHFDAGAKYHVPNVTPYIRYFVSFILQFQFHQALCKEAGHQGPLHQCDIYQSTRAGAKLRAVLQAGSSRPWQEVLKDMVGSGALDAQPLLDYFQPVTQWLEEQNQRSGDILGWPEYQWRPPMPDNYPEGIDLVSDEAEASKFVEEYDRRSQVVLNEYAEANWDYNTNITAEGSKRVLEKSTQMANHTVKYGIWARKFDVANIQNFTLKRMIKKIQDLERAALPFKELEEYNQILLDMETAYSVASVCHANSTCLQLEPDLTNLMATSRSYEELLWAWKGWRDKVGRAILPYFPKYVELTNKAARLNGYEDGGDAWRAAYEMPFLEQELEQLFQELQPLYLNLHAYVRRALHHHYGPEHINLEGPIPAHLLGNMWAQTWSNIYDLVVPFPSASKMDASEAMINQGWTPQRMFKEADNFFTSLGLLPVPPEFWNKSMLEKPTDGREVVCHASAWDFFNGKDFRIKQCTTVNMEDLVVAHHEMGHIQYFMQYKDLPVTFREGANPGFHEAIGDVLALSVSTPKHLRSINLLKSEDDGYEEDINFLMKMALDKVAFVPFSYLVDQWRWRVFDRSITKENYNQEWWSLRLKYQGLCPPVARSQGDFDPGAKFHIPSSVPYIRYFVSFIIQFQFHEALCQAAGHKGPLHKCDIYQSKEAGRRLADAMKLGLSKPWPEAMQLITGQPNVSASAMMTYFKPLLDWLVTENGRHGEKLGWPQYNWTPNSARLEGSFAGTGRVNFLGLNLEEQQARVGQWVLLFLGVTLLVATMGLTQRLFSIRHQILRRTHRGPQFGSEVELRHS
Protocol: ACE (Sigma, A2580) enzymatic activity was assayed in microtiter plates using the following protocol. ACE assay buffer was made from 50 mM HEPES (Sigma), 300 mM sodium chloride (Sigma), and 0.01% Brij-35 (Pierce Chemical Co) at pH 7.5.
Reactions were mixed and incubated at 25° C. Enzymatic cleavage of the substrate is marked by a fluorescence change (excitation 330 nm, emission 415 nm).
The activity of the test compounds was investigated using the procedure outlined above. The compounds were tested in 5% DMSO. Enzyme activity was measured at 12 compound concentrations. […]. […]

[4] = Ki class, compounds tested in 5% DMSO, 12 concentrations, read-out: Human ACE-2 Activity
[5] = Ki class, compounds tested in 5% DMSO, 12 compound concentrations, Ki=Kiapp/(1+[S]/Km), read-out: Human ACE-2 Activity
[6] = Table 3, very good ACE-2 inhibiting compounds, species not given, read-out: ACE-2 Activity, Ki

T1 sequence (Q9BYF1 18-740 limits assumed): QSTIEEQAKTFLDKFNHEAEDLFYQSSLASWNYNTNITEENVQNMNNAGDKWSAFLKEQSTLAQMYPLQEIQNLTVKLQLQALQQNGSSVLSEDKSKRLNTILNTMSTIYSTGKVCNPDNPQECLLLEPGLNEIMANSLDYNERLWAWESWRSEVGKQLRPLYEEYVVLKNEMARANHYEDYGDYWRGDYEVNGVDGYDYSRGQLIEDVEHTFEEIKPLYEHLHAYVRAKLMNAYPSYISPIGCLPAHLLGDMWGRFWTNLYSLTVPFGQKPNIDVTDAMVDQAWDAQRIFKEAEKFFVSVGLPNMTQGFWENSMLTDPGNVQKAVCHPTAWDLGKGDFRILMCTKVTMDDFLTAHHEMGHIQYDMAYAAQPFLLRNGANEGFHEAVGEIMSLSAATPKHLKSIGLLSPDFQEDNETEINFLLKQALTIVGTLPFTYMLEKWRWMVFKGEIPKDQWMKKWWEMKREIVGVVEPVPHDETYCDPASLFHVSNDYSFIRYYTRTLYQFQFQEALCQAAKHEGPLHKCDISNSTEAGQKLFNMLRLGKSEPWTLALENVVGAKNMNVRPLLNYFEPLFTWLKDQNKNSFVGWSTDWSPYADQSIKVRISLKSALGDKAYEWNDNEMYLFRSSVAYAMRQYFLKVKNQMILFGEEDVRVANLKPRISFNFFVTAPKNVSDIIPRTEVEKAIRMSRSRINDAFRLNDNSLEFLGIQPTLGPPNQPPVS

Row | Compound | Ki [1, 4] | Ki ([2]; 12 concentrations) | Ki ([3]; 12 concentrations) | Ki [1, 5] | Ki [1, 6] | Ki ([2]; 12 compound concentrations) | Ki ([3]; 12 compound concentrations)
1 | CCC(N[C@@H](Cc1c[nH]cn1)C(=O)O)C(=O)O (stereo partly shown) | > 0.5 µM | > 50 µM | > 50 µM |  |  |  | 
2 | CC(=O)N(C(CCc1ccccc1)C(=O)O)[C@@H](CC(C)C)C(=O)O (single isomer, unassigned) [AT, 2-[Acetyl-(1-carboxy-3-phenyl-propyl)-amino]-4-methyl-pentanoic acid] | > 0.5 µM | > 50 µM | > 50 µM |  |  |  | 
3 | CCCCC(CC(=O)O)N[C@@H](Cc1c[nH]cn1)C(=O)O (single isomer, unassigned) [ES, 3-[1-Carboxy-2-(1H-imidazol-4-yl)-ethylamino]heptanoic acid] | > 0.5 µM | > 50 µM | > 50 µM |  |  |  | 
4 | CC(C)CC(N[C@@H](Cc1cncn1COCc1ccccc1)C(N)=O)C(=O)O (single isomer, unassigned) [FB, 2-[2-(3-Benzyloxymethyl-3H-imidazol-4-yl)-1-carbamoyl-ethylamino]-4-methyl-pentanoic acid] | > 0.5 µM | > 50 µM | > 50 µM |  |  |  | 
5 | CC(C)CC(N[C@@H](CNc1ccccc1)C(=O)O)C(=O)O (single isomer, unassigned) [FI, 2-(1-Carboxy-2-phenylamino-ethylamino)-4-methyl-pentanoic acid] | > 0.5 µM | > 50 µM | > 50 µM |  |  |  | 
6 | CC(C)CC(N[C@@H](Cc1cncn1COCc1ccccc1)C(=O)NCCc1ccccc1)C(=O)O (single isomer, unassigned) [FM, 2-[2-(3-Benzyloxymethyl-3H-imidazol-4-yl)-1-phenethylcarbamoyl-ethylamino]-4-methyl-pentanoic acid] | > 0.5 µM | > 50 µM | > 50 µM |  |  |  | 
7 | CC(C)CC(N[C@@H](Cc1cncn1Cc1ccc(C(=O)O)cc1)C(=O)O)C(=O)O (single isomer, unassigned) [GO, 4-[5-[2-Carboxy-2-(1-carboxy-3-methyl-butylamino)-ethyl]-imidazol-1-ylmethyl]-benzoic acid] | > 0.5 µM | > 50 µM | > 50 µM |  |  |  | 
8 | CC(C)CC(N[C@@H](Cc1cncn1Cc1ccc(C#N)cc1)C(=O)O)C(=O)O (single isomer, unassigned) [HA, 2-[1-Carboxy-2-[3-(4-cyano-benzyl)-3H-imidazol-4-yl]-ethylamino)4-methyl-pentanoic acid] |  |  |  | < 0.1 µM | 0.05 to 0.1 µM | 10 to 50 µM | 10 to 50 µM
9 | CC(C)CC(N[C@@H](Cc1cncn1Cc1ccc(C(C)(C)C)cc1)C(=O)O)C(=O)O (single isomer, unassigned) [HY, 2-[2-[3-(4-tert-Butyl-benzyl)-3H-imidazol-4-yl]-1-carboxy-ethylamino)-4-methyl-pentanoic acid] |  |  |  | < 0.1 µM | 0.05 to 0.1 µM | < 10 µM | < 10 µM
10 | O=C(O)C(CCc1ccccc1)N1CCC[C@H]1C(=O)O (stereo in doubt) [AC, 1-(1-Carboxy-3-phenyl-propyl)-pyrrolidine-2-carboxylic acid] | > 0.5 µM | > 50 µM | > 50 µM |  |  |  | 
11 | CC(C)CC(N[C@@H](Cc1c[nH]cn1)C(=O)O)C(=O)O (stereo in doubt) [AE, 2-[1-Carboxy-2-(1H-imidazol-4-yl)-ethylamino]4-methyl-pentanoic acid] | > 0.5 µM | > 50 µM | > 50 µM |  |  |  | 
12 | CCCC(N[C@@H](Cc1c[nH]cn1)C(=O)O)C(=O)O (stereo in doubt) [AF, 2-[1-Carboxy-2-(1H-imidazol-4-yl)-ethylamino]pentanoic acid] | > 0.5 µM | > 50 µM | > 50 µM |  |  |  | 
13 | CCCC(N[C@@H](CCSC)C(=O)O)C(=O)O (stereo in doubt) [AO, 2-(1-Carboxy-3-methylsulfanyl-propylamino)-pentanoic acid] | > 0.5 µM | > 50 µM | > 50 µM |  |  |  | 
14 | CCCC(N[C@@H](CC(C)C)C(=O)O)C(=O)O (stereo in doubt) [AQ, 2-(1-Carboxy-butylamino)-4-methyl-pentanoic acid] | > 0.5 µM | > 50 µM | > 50 µM |  |  |  | 
15 | CC(C)C[C@H](NC(C(=O)O)c1ccc(C(F)(F)F)cc1)C(=O)O (stereo in doubt) [AR, 2-{[Carboxy-(4-trifluoromethyl-phenyl)-methyl]-amino}-4-methyl-pentanoic acid] | > 0.5 µM | > 50 µM | > 50 µM |  |  |  | 
16 | CC(C)CC(N[C@H](CC(=O)O)Cc1ccsc1)C(=O)O (stereo in doubt) [EJ, 2-(1-Carboxymethyl-2-thiophen-3-yl-ethylamino)-4-methyl-pentanoic acid] | > 0.5 µM | > 50 µM | > 50 µM |  |  |  | 
17 | CCCC(N[C@@H](Cc1ccccc1)C(=O)O)C(=O)O (stereo partly shown) [AA, 2-(1-Carboxy-2-phenyl-ethylamino)-pentanoicacid] | > 0.5 µM | > 50 µM | > 50 µM |  |  |  | 
18 | O=C(O)C(CO)N[C@@H](CCc1ccccc1)C(=O)O (stereo partly shown) [AB, 2-(1-Carboxy-2-hydroxy-ethylamino)-4-phenyl-butync acid] | > 0.5 µM | > 50 µM | > 50 µM |  |  |  | 
19 | CC(N[C@@H](Cc1c[nH]c2ccccc12)C(=O)O)C(=O)O (stereo partly shown) [AG, 2-(1-Carboxy-ethylamino)-3-(1H-indol-3-yl)-propionic acid] | > 0.5 µM | > 50 µM | > 50 µM |  |  |  | 
20 | CC(NC(Cc1cccs1)C(=O)O)C(=O)O (stereo not shown) [AH, 2-(1-Carboxy-ethylamino)-3-thiophen-2-yl-propionic acid] | > 0.5 µM | > 50 µM | > 50 µM |  |  |  | 
21 | CCCC(NC(Cc1cccs1)C(=O)O)C(=O)O (stereo not shown) [AI, 2-(1-Carboxy-2-thiophen-2-yl-ethylamino)-pentanoic acid] | > 0.5 µM | > 50 µM | > 50 µM |  |  |  | 
22 | O=C(O)C(CCc1ccccc1)N[C@@H](Cc1ccccc1)C(=O)O (stereo partly shown) [AJ, 2-(1-Carboxy-2-phenyl-ethylamino)-4-phenyl-butync acid] | > 0.5 µM | 10 to 50 µM | > 50 µM |  |  |  | 
23 | O=C(O)C(Cc1ccccc1)NC(Cc1cncn1Cc1ccccc1)C(=O)O (stereo not shown) [GE, 3-(3-Benzyl-3H-imidazol-4-yl)-2-(1-carboxy-2-phenyl-ethylamino)-propronic acid] |  | > 50 µM | > 50 µM |  |  |  | 
